# Test system: 377384-186-R-J1-PDC complex spheroid viability
# Experiment: Anticancer human tumor 377384-186-R-J1-PDC patient-derived pancreatic carcinoma cell line growth inhibition [CLK]
# Settings: for IC50: curve of first compound; for viability, T/C: stronger effect = lower value
# Outline: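 Patient-derived tumor cells grown as complex spheroids with HUVEC endothelial cells and mesenchymal stem cells, treated with drug combinations. Concentrations descend in half-log steps from near clinical Cmax, or from 10 microM if Cmax unknown.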
# 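Also: spheroids exposed to agents for 7 days before reading.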
# 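For viability, T/C in this document: luminescence signal used as a stand-in for viable cells.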
smiles,measurement,setting,value
CC(C)CC(NC(=O)C(Cc1ccccc1)NC(=O)c1cnccn1)B(O)O (configuration not stated) + CNC(=O)c1ccc(Nc2nc(OC3CCCC3)c3c(-c4ccc5nc(C)oc5c4)c[nH]c3n2)c(OC)c1,IC50,second compound 0.0316 µM,1.41 nM
same,IC50,second compound 0.1 µM,< 0.949 nM
same,IC50,second compound 0.316 µM,< 0.949 nM
same,IC50,second compound 1 µM,< 0.949 nM
same,IC50,second compound 3.16 µM,< 0.949 nM
same,IC50,second compound 10 µM,< 0.949 nM
same,"viability, T/C","second compound 0.0316 µM, first compound 0.000949 µM",75.2%
same,"viability, T/C","second compound 0.0316 µM, first compound 0.003 µM",2.16%
same,"viability, T/C","second compound 0.0316 µM, first compound 0.00949 µM",0.37%
same,"viability, T/C","second compound 0.0316 µM, first compound 0.03 µM",0.17%
same,"viability, T/C","second compound 0.0316 µM, first compound 0.0949 µM",0.17%
same,"viability, T/C","second compound 0.0316 µM, first compound 0.3 µM",0.13%
same,"viability, T/C","second compound 0.1 µM, first compound 0.000949 µM",44%
same,"viability, T/C","second compound 0.1 µM, first compound 0.003 µM",1.4%
same,"viability, T/C","second compound 0.1 µM, first compound 0.00949 µM",0.25%
same,"viability, T/C","second compound 0.1 µM, first compound 0.03 µM",0.15%
same,"viability, T/C","second compound 0.1 µM, first compound 0.0949 µM",0.13%
same,"viability, T/C","second compound 0.1 µM, first compound 0.3 µM",0.15%
same,"viability, T/C","second compound 0.316 µM, first compound 0.000949 µM",21.4%
same,"viability, T/C","second compound 0.316 µM, first compound 0.003 µM",0.99%
same,"viability, T/C","second compound 0.316 µM, first compound 0.00949 µM",0.18%
same,"viability, T/C","second compound 0.316 µM, first compound 0.03 µM",0.14%
same,"viability, T/C","second compound 0.316 µM, first compound 0.0949 µM",0.15%
same,"viability, T/C","second compound 0.316 µM, first compound 0.3 µM",1.69%
same,"viability, T/C","second compound 1 µM, first compound 0.000949 µM",17.2%
same,"viability, T/C","second compound 1 µM, first compound 0.003 µM",0.98%
same,"viability, T/C","second compound 1 µM, first compound 0.00949 µM",0.28%
same,"viability, T/C","second compound 1 µM, first compound 0.03 µM",0.24%
same,"viability, T/C","second compound 1 µM, first compound 0.0949 µM",0.51%
same,"viability, T/C","second compound 1 µM, first compound 0.3 µM",0.35%
same,"viability, T/C","second compound 3.16 µM, first compound 0.000949 µM",14.8%
same,"viability, T/C","second compound 3.16 µM, first compound 0.003 µM",0.96%
same,"viability, T/C","second compound 3.16 µM, first compound 0.00949 µM",0.36%
same,"viability, T/C","second compound 3.16 µM, first compound 0.03 µM",0.23%
same,"viability, T/C","second compound 3.16 µM, first compound 0.0949 µM",0.31%
same,"viability, T/C","second compound 3.16 µM, first compound 0.3 µM",0.21%
same,"viability, T/C","second compound 10 µM, first compound 0.000949 µM",14.3%
same,"viability, T/C","second compound 10 µM, first compound 0.003 µM",0.81%
same,"viability, T/C","second compound 10 µM, first compound 0.00949 µM",0.71%
same,"viability, T/C","second compound 10 µM, first compound 0.03 µM",0.24%
same,"viability, T/C","second compound 10 µM, first compound 0.0949 µM",0.62%
same,"viability, T/C","second compound 10 µM, first compound 0.3 µM",0.3%

# — PubChem BioAssay AID2060616 (Molecular Pharmacology Branch, DTP, NCI, 2025)
